{"source": "patent US20100016213A1", "about": "“USE OF A DITERPENOID COMPOUND FOR TREATING DIABETES” (National Taiwan University, priority 2008, published 2010)", "assay_type_in_all_cases": "in vivo", "key": {"[1]": {"test_system": "STZ-induced diabetic mice", "assay": "Lowering plasma glucose level, intraperitoneal injection, STZ-induced diabetic mice (type I diabetes model)", "details": "for Plasma Glucose Level, After: after treatment; for Plasma Glucose Level, Before: before treatment", "description": "Normal and streptozotocin (STZ)-induced diabetic mice were administered with borapetoside A (5.0 mg/kg), borapetoside C (5.0 mg/kg), glibenclamide (5.0 mg/kg), metformin (500.0 mg/kg), or a vehicle control via intraperitoneal injection. STZ-induced diabetic mice are a well-known mouse model of type I diabetes (insulin dependent). See, e.g., Liu I M, et al., Neuroscience Letters 2001; 307: 81-84. Glibenclamide and metformin serve as two positive controls in this study.\nThe plasma glucose levels of the treated mice were determined before and one hour after administration. The activity of lowering plasma glucose levels (AL) is calculated following the formula: […]\nBorapetoside C was administered to normal mice at 0.1, 1.0, 3.0, and 5.0 mg/kg and to STZ-diabetic mice at 0.1, 1.0, 3.0, and 5.0 mg/kg. The plasma glucose levels of the treated mice were examined before and after treatment."}, "[2]": {"test_system": "Diet-induced diabetic mice (NIDDM)", "assay": "Lowering plasma glucose levels via oral administration, diet-induced diabetic mice", "details": "oral 10.0 mg/kg, sixty minutes after treatment, mean ± SEM, six animals", "description": "Normal, STZ-induced diabetic mice, and diet-induced diabetic mice were administered orally with 10.0 mg/kg borapetoside C, glibenclamide or metformin as a positive control, and a vehicle control. The plasma glucose levels of the treated mice were determined before and sixty minutes after treatment and the results thus obtained were shown in Table 3 below."}, "normal mice [3]": {"test_system": "normal mice", "assay": "Plasma insulin levels before and after treatment (Insulin ELISA), normal mice", "details": "for Plasma insulin, Pre-treatment: before treatment; for Plasma insulin, post-treatment: one hour after treatment", "description": "Normal mice, STZ-induced diabetic mice, and diet-induced diabetic mice were administered with a vehicle control, borapetoside A (5.0 mg/kg), borapetoside C (at various doses), glibenclamide (5.0 mg/kg) or metformin (500 mg/kg) by intraperitoneal injection. These mice were examined for their blood insulin levels before and one hour after treatment, using the Insulin(Rat) ELISA kit obtained from Penisula Lab. Inc., San Carlos, Calif., USA."}, "normal mice [4]": {"test_system": "normal mice", "assay": "Glycogen content in skeletal muscle, normal mice", "details": "5 mg/kg i.p., 30 minutes after injection", "description": "(§1) Normal, STZ-induced diabetic, and DIO-induced diabetic mice were intraeritoneally injected with borapetoside C (5 mg/kg) and Actrapid (0.5 IU/kg; a short-acting insulin provided by Novo Nordisk) or metformin (500 mg/kg). Their glycogen contents in skeletal muscle were determined 30 minutes after injections."}, "[5]": {"test_system": "DIO-induced diabetic mice(NIDDM)", "assay": "Glycogen content in skeletal muscle, DIO-induced diabetic mice", "details": "5 mg/kg i.p., 30 minutes after injection", "description": "as §1"}, "Normal ICR mice": {"test_system": "Normal ICR mice", "assay": "Intraperitoneal glucose tolerance test (IPGTT), normal ICR mice", "details": "borapetoside C 5.0 mg/kg", "description": "(§2) Normal ICR mice and DIO-induced diabetic mice, treated with borapetoside C (5.0 mg/kg), a vehicle control, or glibenclamide (positive control), were subjected to an intraperitoneal glucose tolerance test (IPGTT) as described in Lamont et al., Diabetes 2008; 57: 190-198. More specifically, glucose (2.0 mg/g body weight) was administered via IP injection to normal and DIO mice and blood samples were drawn from the treated mice before and 30, 60, 120, and 150 min after glucose administration for examination of glucose levels.\nIn normal mice treated with borapetoside C, the vehicle control, and glibenclamide, the basal plasma glucose concentrations were 106.8±4.7 mg/dL, 114.7±4.6 mg/dL, and 104.9±3.1 mg/dL, respectively. Thirty minutes after intraperitoneal glucose injection, the plasma glucose concentration was elevated to 346.2±14.7 mg/dL in vehicle-treated mice, to 292.9±10.9 mg/dL in borapetoside C-treated mice, or to 273.4±13.6 mg/dL in glibenclamide-treated mice."}, "[6]": {"test_system": "DIO-induced diabetic mice", "assay": "Intraperitoneal glucose tolerance test (IPGTT), DIO-induced diabetic mice", "details": "diet-induced diabetic mice, borapetoside C 5.0 mg/kg", "description": "as §2\nIn diet-induced diabetic mice treated with borapetoside C, the vehicle control, and glibenclamide, the basal plasma glucose concentrations were 181.6±12.3 mg/dL, 183.1±2.9 mg/dL, and 185.3±7.7 mg/dL, respectively. Thirty minutes after intraperitoneal glucose injection, the plasma glucose concentration was elevated to 405.6±8.9 mg/dL in vehicle-treated mice, to 343.5±11.2 mg/dL in borapetoside C-treated mice, or to 339.1±15.4 mg/dL in glibenclamide-treated mice."}, "normal mice [7]": {"test_system": "normal mice", "assay": "Insulin sensitivity: plasma glucose reduction with insulin plus borapetoside C or vehicle, normal mice", "details": "thirty minutes after insulin", "description": "(§3) The effect of borapetoside C on insulin sensitivity was tested following the method described in Liu, et al., Clinical and Experimental Pharmacology and Physiology 2005; 32: 649-654. Normal mice (n=6), STZ-induced diabetic mice (n=5), and DIO-induced diabetic mice (n=7) were treated with insulin at various doses (i.e., 0.1 IU/kg, 0.5 IU/kg, and 1.0 IU/kg) together with either borapetoside C (0.1 mg/kg) or a vehicle control. Their plasma glucose levels were examined before and thirty minutes after insulin administration. The activity of lowering plasma glucose levels (AL) was calculated following the formula described in Example 2 above."}, "[8]": {"test_system": "DIO-induced diabetic mice", "assay": "Insulin sensitivity: plasma glucose reduction with insulin plus borapetoside C or vehicle, DIO-induced diabetic mice", "details": "thirty minutes after insulin", "description": "as §3"}, "[9]": {"details": "Borapetoside C 0.1 mg/kg together with Insulin 0.1 IU/kg"}, "[10]": {"details": "Borapetoside C 0.1 mg/kg together with Insulin 0.5 IU/kg"}, "[11]": {"details": "Borapetoside C 0.1 mg/kg together with Insulin 1.0 IU/kg"}}}
{"compound": "COC(=O)C1=CCC[C@H]2[C@]3(C)C[C@@H](c4ccoc4)OC(=O)[C@@H]3C[C@@H](O[C@@H]3O[C@H](CO)[C@@H](O)[C@H](O)[C@H]3O)[C@@]12C", "note": "[borapetoside C]", "values": [{"measurement": "Plasma Glucose Level, After", "setting": "[1]; 0.1 mg/kg", "value": "529.0 ± 14.7", "unit": "mg/dL"}, {"measurement": "Plasma Glucose Level, Before", "setting": "[1]; 0.1 mg/kg", "value": "580.0 ± 7.8", "unit": "mg/dL"}, {"measurement": "Plasma Glucose Level, After", "setting": "[1]; 1.0 mg/kg", "value": "472.2 ± 13.9", "unit": "mg/dL"}, {"measurement": "Plasma Glucose Level, Before", "setting": "[1]; 1.0 mg/kg", "value": "566.6 ± 11.4", "unit": "mg/dL"}, {"measurement": "Plasma Glucose Level, After", "setting": "[1]; 3.0 mg/kg", "value": "493.8 ± 15.3", "unit": "mg/dL"}, {"measurement": "Plasma Glucose Level, Before", "setting": "[1]; 3.0 mg/kg", "value": "572.2 ± 16.2", "unit": "mg/dL"}, {"measurement": "Activities of Lowering Plasma Glucose Levels (AL)", "setting": "[1]; 5.0 mg/kg intraperitoneal injection, one hour after administration", "value": "16.5 ± 2.9", "unit": "%"}, {"measurement": "Plasma Glucose Level, After", "setting": "[1]; 5.0 mg/kg", "value": "481.1 ± 20.8", "unit": "mg/dL"}, {"measurement": "Plasma Glucose Level, Before", "setting": "[1]; 5.0 mg/kg", "value": "576.0 ± 11.1", "unit": "mg/dL"}, {"measurement": "Activity of lowing plasma glucose levels (%)", "setting": "[2]", "value": "28.2 ± 3.1", "unit": "%"}, {"measurement": "Plasma insulin, Pre-treatment", "setting": "normal mice [3]; 0.1 mg/kg i.p.", "value": "54.0 ± 3.4", "unit": "pmol/L"}, {"measurement": "Plasma insulin, post-treatment", "setting": "normal mice [3]; 0.1 mg/kg i.p.", "value": "71.5 ± 5.3", "unit": "pmol/L"}, {"measurement": "Plasma insulin, Pre-treatment", "setting": "normal mice [3]; 0.5 mg/kg i.p.", "value": "52.2 ± 3.0", "unit": "pmol/L"}, {"measurement": "Plasma insulin, post-treatment", "setting": "normal mice [3]; 0.5 mg/kg i.p.", "value": "65.7 ± 9.8", "unit": "pmol/L"}, {"measurement": "Plasma insulin, Pre-treatment", "setting": "normal mice [3]; 1.0 mg/kg i.p.", "value": "58.9 ± 3.5", "unit": "pmol/L"}, {"measurement": "Plasma insulin, post-treatment", "setting": "normal mice [3]; 1.0 mg/kg i.p.", "value": "65.0 ± 6.0", "unit": "pmol/L"}, {"measurement": "Plasma insulin, Pre-treatment", "setting": "normal mice [3]; 3.0 mg/kg i.p.", "value": "52.0 ± 3.7", "unit": "pmol/L"}, {"measurement": "Plasma insulin, post-treatment", "setting": "normal mice [3]; 3.0 mg/kg i.p.", "value": "142.6 ± 29.2", "unit": "pmol/L"}, {"measurement": "Plasma insulin, Pre-treatment", "setting": "normal mice [3]; 5.0 mg/kg i.p.", "value": "56.6 ± 2.3", "unit": "pmol/L"}, {"measurement": "Plasma insulin, post-treatment", "setting": "normal mice [3]; 5.0 mg/kg i.p.", "value": "139.4 ± 25.5", "unit": "pmol/L"}, {"measurement": "Glycogen content (μmol/g wet weight)", "setting": "normal mice [4]", "value": "25.1 ± 1.3", "unit": "μmol/g wet weight"}, {"measurement": "Glycogen content (μmol/g wet weight)", "setting": "[5]", "value": "23.3 ± 0.4", "unit": "μmol/g wet weight"}, {"measurement": "basal plasma glucose concentration (IPGTT)", "setting": "Normal ICR mice; before glucose injection", "value": "106.8 ± 4.7", "unit": "mg/dL"}, {"measurement": "plasma glucose levels at 60 min, 120 min, and 150 min versus control mice (IPGTT)", "setting": "Normal ICR mice; glucose 2.0 mg/g IP", "value": "significantly lower"}, {"measurement": "plasma glucose concentration thirty minutes after intraperitoneal glucose injection (IPGTT)", "setting": "Normal ICR mice; glucose 2.0 mg/g body weight IP, vehicle 346.2±14.7", "value": "292.9 ± 10.9", "unit": "mg/dL"}, {"measurement": "basal plasma glucose concentration (IPGTT)", "setting": "[6]; before glucose injection", "value": "181.6 ± 12.3", "unit": "mg/dL"}, {"measurement": "plasma glucose levels at 60 min, 120 min, and 150 min versus control mice (IPGTT)", "setting": "[6]; glucose 2.0 mg/g IP", "value": "significantly lower"}, {"measurement": "plasma glucose concentration thirty minutes after intraperitoneal glucose injection (IPGTT)", "setting": "[6]; glucose 2.0 mg/g body weight IP, vehicle 405.6±8.9", "value": "343.5 ± 11.2", "unit": "mg/dL"}, {"measurement": "AL (%)", "setting": "normal mice [7]; [9]", "value": "17.2 ± 1.2", "unit": "%"}, {"measurement": "AL (%)", "setting": "normal mice [7]; [10]", "value": "45.7 ± 3.7", "unit": "%"}, {"measurement": "AL (%)", "setting": "normal mice [7]; [11]", "value": "64.7 ± 1.8", "unit": "%"}, {"measurement": "AL (%)", "setting": "[8]; [9]", "value": "24.0 ± 1.1", "unit": "%"}, {"measurement": "AL (%)", "setting": "[8]; [10]", "value": "31.6 ± 1.6", "unit": "%"}, {"measurement": "AL (%)", "setting": "[8]; [11]", "value": "42.5 ± 0.8", "unit": "%"}]}
